We go through 31 compounds from ChEMBL document CHEMBL2390934, “Synthesis and evaluation of phenoxyoxazaphospholidine, phenoxyoxazaphosphinane, and benzodioxaphosphininamine sulfides and related compounds as potential anti-malarial agents” (Bioorg Med Chem Lett, 2013).

Active and inactive are the calls of the source. The rule behind the calls is not given here. A value given as a limit tells only on which side of the number the result lay.

Experiment [1] deals with Plasmodium falciparum. Kind of experiment: Antimalarial activity against Plasmodium falciparum 3D7 infected in O positive erythrocytes assessed as parasite lactate dehydrogenase activity after 72 hrs. The experiment is classed as functional, organism-based. To be noted: 3D7, 72 h.
The test system of experiment [2] is Plasmodium falciparum. Kind of experiment: Antimalarial activity against chloroquine-resistant Plasmodium falciparum K1/Thailand infected in O positive erythrocytes assessed as parasite lactate dehydrogenase activity after 72 hrs. The experiment is classed as functional, organism-based.

The term IC50 denotes the concentration at which inhibition is half-maximal. Consider `CCOP(=O)(NC(C)C)Oc1ccc2ccccc2c1` (configuration not stated), for which the half-inhibitory concentration (IC50) in experiment [1] turned out to be 87 µM. Turning to `CCOP(=O)(NC1CCCC1)Oc1ccc(C(F)(F)F)cn1` (configuration not stated), the half-maximal inhibitory concentration (IC50) in experiment [1] is 23 µM. `Cc1ccc(OP2(=S)NCCO2)c([N+](=O)[O-])c1` (configuration not stated): in experiment [1], the IC50 is > 128 µM.

For `Cc1ccc([N+](=O)[O-])c(OP2(=S)NCCCO2)c1` (configuration not stated), the IC50 in experiment [1] was > 128 µM. On to `FC(F)(F)c1ccc(OP2(=S)NCCO2)cc1` (configuration not stated), for which the IC50 in experiment [1] turned out to be 108 µM. Take `CCOP(=O)(NC(C)C)Oc1ccc2ccccc2c1[N+](=O)[O-]` (configuration not stated): the half-maximal inhibitory concentration (IC50) in experiment [1] is 98 µM.

Regarding `CCOP(=S)(NC1CCCC1)Oc1cccc2cccnc12` (configuration not stated), the IC50 in experiment [1] is 25 µM.

As to `CCOP(=S)(NC1CCCC1)Oc1ccc2ncccc2c1` (configuration not stated), the IC50 in experiment [1] is 19 µM. For the compound `CC1COP(=S)(Oc2ccc(C(F)(F)F)cc2)N1` (racemic), the half-maximal inhibitory concentration (IC50) in experiment [1] was > 128 µM. As for `CCOP(=O)(NC(C)C)Oc1cc(C)ccn1` (configuration not stated), in experiment [1], the half-maximal inhibitory concentration (IC50) came out at 128 µM. As to `NCCCCNc1ccnc2cc(Cl)ccc12`, the concentration for half-maximal inhibition (IC50) in experiment [1] came out at 0.64 µM. Still for that read-out and setting: in the case of `CCOP(=O)(NC(C)C)Oc1ccc(C(F)(F)F)cn1` (configuration not stated) it was 25 µM. `CC(C)NP1(=S)OCc2ccccc2O1` (configuration not stated): in experiment [1], the IC50 turned out to be 62 µM. Regarding `Cc1cc2c(c([N+](=O)[O-])c1)OP(=S)(NC(C)C)OC2` (configuration not stated), the IC50 in experiment [1] was > 128 µM. On to `Cc1ccc(OP2(=S)NCCCO2)c([N+](=O)[O-])c1` (configuration not stated), for which, in experiment [1], the IC50 is > 128 µM. Regarding `CCOP(=O)(NC(C)C)Oc1cc(C)c([N+](=O)[O-])cn1` (configuration not stated), the IC50 in experiment [1] was 25 µM.

Turning to `CCOP(=S)(NCCCCNc1ccnc2cc(Cl)ccc12)Oc1ccc(C(F)(F)F)cc1` (configuration not stated), the result in experiment [2] was Active. In addition, the IC50 in experiment [1] was 0.038 µM. For the compound `Cc1cc([N+](=O)[O-])ccc1OP1(=S)NCCO1` (configuration not stated), in experiment [1], the IC50 came to 51 µM. Consider `Cc1ccc([N+](=O)[O-])cc1OP1(=S)NCCCO1` (configuration not stated), for which the IC50 in experiment [1] was found to be 108 µM. Consider `CC(C)NP1(=S)OCc2cc([N+](=O)[O-])ccc2O1` (configuration not stated), for which, in experiment [1], the IC50 was 108 µM. The same measure, in the same setting: under `Cc1cc([N+](=O)[O-])ccc1OP1(=S)NCCCO1` (configuration not stated) stands 128 µM; under `CCCNP1(=S)OCc2ccccc2O1` (configuration not stated), 95 µM. For the compound `CC(C)CNP1(=S)OCc2cc([N+](=O)[O-])ccc2O1` (configuration not stated), in experiment [1], the IC50 turned out to be 118 µM.

With `CCOP(=O)(NC(C)C)Oc1cc(O)ccn1` (configuration not stated), the half-inhibitory concentration (IC50) in experiment [1] worked out at 128 µM. With `CCOP(=O)(NC(C)C)Oc1nccc(C)c1[N+](=O)[O-]` (configuration not stated), the IC50 in experiment [1] was 128 µM. In the case of `CCOP(=S)(NC(C)C)Oc1ccc(C(F)(F)F)cn1` (configuration not stated), the half-inhibitory concentration (IC50) in experiment [1] came to 29 µM. `FC(F)(F)c1ccc(OP2(=S)NCCCO2)cc1` (configuration not stated): the 50% inhibitory concentration (IC50) in experiment [1] is 62 µM. Same read-out and setting: under `Cc1ccc(OP2(=S)NC(C)CO2)c([N+](=O)[O-])c1` (mixture of isomers) stands 77 µM; under `CC(C)CNP1(=S)OCc2ccccc2O1` (configuration not stated), 58 µM.

Regarding `FC(F)(F)c1ccc(OP2(=S)OCCS2)cc1` (configuration not stated), the half-inhibitory concentration (IC50) in experiment [1] is 64 µM.

As to `Cc1ccc([N+](=O)[O-])cc1OP1(=S)NCCO1` (configuration not stated), the 50% inhibitory concentration (IC50) in experiment [1] came to 24 µM.
